Data reported in PubChem BioAssay (NCI).
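1) Cells in 96-well plates. 2) Compound, 48 h, 5 concentrations. 3) Linear interpolation between surrounding doses. 4) Unreached endpoint = highest concentration. Here, GI50 denotes the concentration required for 50% inhibition of growth. TGI marks complete inhibition of growth.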

Experiments:
Experiment in all cases: DTP human tumour cell line panel, 48 h
SN12C renal = system: SN12C renal
OVCAR-5 ovarian = system: OVCAR-5 ovarian
PC-3 prostate = system: PC-3 prostate
DU-145 prostate = system: DU-145 prostate
SF-295 CNS = system: SF-295 CNS
CAKI-1 renal = system: CAKI-1 renal
SNB-19 CNS = system: SNB-19 CNS
UO-31 renal = system: UO-31 renal
UACC-257 melanoma = system: UACC-257 melanoma
NCI-H226 lung = system: NCI-H226 lung

Row | SMILES | TGI (SN12C renal) [µM] | TGI (OVCAR-5 ovarian) [µM] | TGI (PC-3 prostate) [µM] | TGI (DU-145 prostate) [µM] | TGI (SF-295 CNS) [µM] | TGI (CAKI-1 renal) [µM] | TGI (SNB-19 CNS) [µM] | TGI (UO-31 renal) [µM] | TGI (UACC-257 melanoma) [µM] | GI50 (SN12C renal) [µM] | GI50 (NCI-H226 lung) [µM] | TGI (NCI-H226 lung) [µM] | GI50 (OVCAR-5 ovarian) [µM] | GI50 (PC-3 prostate) [µM] | GI50 (DU-145 prostate) [µM] | GI50 (SF-295 CNS) [µM] | GI50 (CAKI-1 renal) [µM] | GI50 (UO-31 renal) [µM] | GI50 (UACC-257 melanoma) [µM]
1 | C=CC[N+]12CN3CN(CN(C3)C1)C2 | 60.2 | 95.5 | > 100 | 46.9 | > 100 | 37.1 | > 100 | 43.7 | 61.7 |  |  |  |  |  |  |  |  |  | 
2 | O=c1ccc2nc(-c3ccccc3)nn(-c3ccccn3)c-2c1 | 37.9 | 54.9 | 35.7 | 30.7 | > 100 | 2.84 |  | 2.81 | 14.6 | 16.9 | 20.4 | 57.5 | 21.9 | 13.2 | 15.5 | 31 | 1.5 | 1.45 | 3.66
3 | O=C1c2ccccc2C(=O)c2c(Nc3ccc4c5c(cccc35)C(=O)c3ccccc3-4)cccc21 | > 100 | > 100 | > 100 | > 100 | > 100 | > 100 | > 100 | > 100 | > 100 |  |  | > 100 |  |  |  |  |  |  | 
4 | N#CCCCC[N+]12CN3CN(CN(C3)C1)C2 | > 100 | > 100 | > 100 | > 100 | > 100 | > 100 | > 100 | > 100 | > 100 |  |  | > 100 |  |  |  |  |  |  | 
5 | CC(C)c1cc(CN(C)C)c(O)c(C(C)(C)C)c1 | 33.1 | > 100 | 56.7 | > 100 | 37.4 | 53.8 | 53.4 | 58 | 29.2 |  |  | 42.5 |  |  |  |  |  |  | 
6 | O=C(CNc1cccc([N+](=O)[O-])c1)Nn1c(-c2ccccc2)nc2ccccc2c1=O | 2.73 | 3.46 | 1.85 | 5.47 | 3.28 |  | 4.99 | 4.12 | 11.8 |  |  | 0.512 |  |  |  |  |  |  | 
7 | NC(=O)C(N)=O | > 100 | > 100 |  |  | > 100 |  | > 100 | > 100 | > 100 |  |  |  |  |  |  |  |  |  | 
8 | Nc1nc(N)c2c(n1)NC(=O)c1c(c3ccccc3n1Cc1ccc(Cl)cc1)C2 | 38.2 | > 100 | > 100 | 29.3 | 84.7 | 34.5 | > 100 | > 100 | > 100 |  |  | > 100 |  |  |  |  |  |  | 
9 | N#CN=C(N)NC(=O)/C=C/C=C/c1ccc(Cl)cc1 | > 100 | > 100 |  |  | > 100 | > 100 |  | > 100 | > 100 |  |  | > 100 |  |  |  |  |  |  | 
10 | C#CCOc1c(C(=O)OCC)c(=O)n(C)c2ccccc12 | > 100 |  |  |  | > 100 | > 100 | > 100 | > 100 |  |  |  | > 100 |  |  |  |  |  |  | 
11 | CC(C)(C)N1C(C(=O)c2ccccc2)C1c1ccccc1 (stereo not given) | > 100 |  |  |  |  |  | > 100 |  | > 100 |  |  | > 100 |  |  |  |  |  |  | 
12 | CCOC(=O)C12CCC(=O)C=C1[C@@H](C)C(=O)CC2 (stereo not given in full) | > 100 | > 100 |  |  | > 100 |  |  | > 100 | > 100 |  |  | > 100 |  |  |  |  |  |  | 
13 | COc1ccc(C[C@H](N)C(=O)NC2C(CO)OC(n3cnc4c(N(C)C)ncnc43)C2O)cc1 (stereo not given in full) |  | 42.3 |  |  | 1.57 |  |  | 7.89 | 1.67 |  |  | 0.446 |  |  |  |  |  |  | 
14 | COC(=O)Nc1nc2cc(OC)c(OC)cc2c(=O)[nH]1 | > 100 | > 100 | 71 | > 100 | 37 | > 100 | > 100 | > 100 | > 100 |  |  | > 100 |  |  |  |  |  |  | 
